Reference: ChEMBL document CHEMBL1201862, “PubChem BioAssay data set” (2004)
Calls of active or inactive are those of the source.

Assays:
[1] = molecular target: Heat shock protein HSP 90-alpha (Homo sapiens, UniProt P07900); type: functional, organism-based
[2] = inhibitors of HIV Env-driven cell fusion, dose response, cherry-pick (AID 652057); type: functional, cell-based
[3] = ZM109 Env clade C HIV-1 fusion inhibitors, dose response, HeLa effector, CEM target cells, luciferase, cherry-pick (AID 652058); type: functional, cell-based
[4] = inhibitors of clade B AD8 Env fusion, dose response, cell-based, cherry-pick (AID 652062); type: functional;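 also: luciferase signal from cell-cell fusion driven by HIV-1 clade B AD8 Env; potency is for inhibitors of fusion seen as a drop in luminescence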
[5] = intracellular Trypanosoma cruzi inhibitors in host cells – cell-based, plate reader, cherry-pick samples, set 3, dose response (AID 651818); type: functional;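 also: compounds incubated with infected cells for about four days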
[6] = molecular target: Induced myeloid leukemia cell differentiation protein Mcl-1 (Homo sapiens, UniProt Q07820); type: functional
[7] = molecular target: T1, Protein skinhead-1 (Caenorhabditis elegans, UniProt P34707); type: functional
T1 sequence (P34707 whole entry): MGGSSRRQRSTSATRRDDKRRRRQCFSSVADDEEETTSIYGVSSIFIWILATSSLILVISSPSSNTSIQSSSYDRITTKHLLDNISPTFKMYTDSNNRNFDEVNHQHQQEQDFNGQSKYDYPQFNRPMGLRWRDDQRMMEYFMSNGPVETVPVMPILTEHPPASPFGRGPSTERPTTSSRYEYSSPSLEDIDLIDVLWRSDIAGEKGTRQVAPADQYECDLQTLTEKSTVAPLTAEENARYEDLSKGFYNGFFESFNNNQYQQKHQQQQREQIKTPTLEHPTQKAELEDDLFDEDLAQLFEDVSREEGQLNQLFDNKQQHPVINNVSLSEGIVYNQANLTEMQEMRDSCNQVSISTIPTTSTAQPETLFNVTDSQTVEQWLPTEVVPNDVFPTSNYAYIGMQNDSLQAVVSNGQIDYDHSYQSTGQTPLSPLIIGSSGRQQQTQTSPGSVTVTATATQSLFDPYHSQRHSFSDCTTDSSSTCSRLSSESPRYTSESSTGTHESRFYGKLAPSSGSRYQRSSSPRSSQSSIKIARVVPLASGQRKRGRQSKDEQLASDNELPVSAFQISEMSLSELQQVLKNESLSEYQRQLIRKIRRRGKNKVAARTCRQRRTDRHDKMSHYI

[8] = P. falciparum Dd2 growth inhibitors, dose response, SYBR Green, cherry-picked samples (AID 1159567); type: functional, cell-based
[9] = molecular target: T2, Heat shock factor protein 1 (Mus musculus, UniProt P38532); assay: HSF1 potentiators in luciferase reporter cells, confirmation, cell-based, NIH3T3, luminescence, dose retest (AID 435004); type: functional;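 also: stress induced by proteasome inhibitor MG132 added 30 min after compound; luciferase reporter driven by HSF1 response element in NIH3T3 cells; actives raise luminescence as potentiators of the MG132 stress response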
T2 sequence (P38532 whole entry): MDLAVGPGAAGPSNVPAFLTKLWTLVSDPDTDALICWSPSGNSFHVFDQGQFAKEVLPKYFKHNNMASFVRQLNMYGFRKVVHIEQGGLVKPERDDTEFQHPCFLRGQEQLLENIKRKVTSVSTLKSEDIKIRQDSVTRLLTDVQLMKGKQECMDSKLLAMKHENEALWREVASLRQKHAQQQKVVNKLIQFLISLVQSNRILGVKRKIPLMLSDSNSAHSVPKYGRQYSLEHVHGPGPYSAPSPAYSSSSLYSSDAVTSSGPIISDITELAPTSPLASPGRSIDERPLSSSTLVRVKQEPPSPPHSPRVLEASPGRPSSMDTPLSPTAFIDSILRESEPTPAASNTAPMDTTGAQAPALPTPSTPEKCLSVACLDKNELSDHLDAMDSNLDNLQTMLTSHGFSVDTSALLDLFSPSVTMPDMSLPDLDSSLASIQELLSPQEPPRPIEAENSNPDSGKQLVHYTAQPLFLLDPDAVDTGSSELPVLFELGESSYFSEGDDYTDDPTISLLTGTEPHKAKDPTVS

[10] = molecular target: FAD-linked sulfhydryl oxidase ALR (Homo sapiens, UniProt P55789); assay: inhibitors of human ALR sulfhydryl oxidase, dose response, biochemical, H2O2 detection, luminescence, cherry-pick (AID 493248)
[11] = HEp-2 cell cytotoxicity, dose response, cytotoxicity control for RSV inhibitor project, HTS (AID 2410); type: functional; settings: human respiratory syncytial virus
[12] = molecular target: Cytochrome P450 2C9 (Homo sapiens, UniProt P11712)
[13] = molecular target: Fatty acid synthase (Homo sapiens, UniProt P49327); assay: FAS thioesterase domain inhibitors, dose response, biochemical, kinetic fluorescence intensity (AID 624326); type: functional;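 also: rate of fluorescence rise from hydrolysis of a fluorogenic O-methyl fluorescein ester substrate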
[14] = molecular target: Cytochrome P450 3A4 (Homo sapiens, UniProt P08684);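 also: CYP3A4 tested as one member of a cytochrome P450 panel screen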
[15] = inhibitors of intracellular T. cruzi replication, confirmation, NIH3T3 host cells, beta-gal luminescence (AID 2044); type: functional, cell-based;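 also: intracellular parasites grown in NIH/3T3 mouse fibroblasts as host cells; luminescent beta-galactosidase reporter signal from transgenic T. cruzi replicating inside host cells; inhibitors lower the luminescence signal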
[16] = cytotoxicity toward NIH3T3 fibroblasts, dose response, counter-screen, cell-based, ATP luminescence, mouse fibroblasts (AID 2010); type: functional;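 also: cells exposed to compound for about 90 hours before reading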
[17] = cells; type: functional
[18] = NIH-3T3 fibroblast cytotoxicity, dose response, cytotoxicity control, cell-based, fluorescence, Alamar Blue, secondary assay (AID 2327); type: functional;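 also: NIH-3T3 mouse fibroblasts cultured with fluconazole at 8 µg/mL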
[19] = system: Streptococcus sp. 'group A'; assay: growth inhibition of control SK(-) GAS strain, dose response, counter-screen for streptokinase expression inhibitor project, luminescence, kanamycin, BacTiterGlo, confirmation (AID 1900); type: functional, organism-based
[20] = molecular target: T3, Streptokinase A (Streptococcus pyogenes serotype M1, UniProt P10520); assay: S. pyogenes streptokinase expression inhibitors, potency, dose response, plasminogen activation absorbance, OD405 (AID 1914); type: functional, Streptococcus pyogenes M1 GAS;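 also: secreted streptokinase activity via plasminogen activation per viability signal from cell pellet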
T3 sequence (P10520 whole entry): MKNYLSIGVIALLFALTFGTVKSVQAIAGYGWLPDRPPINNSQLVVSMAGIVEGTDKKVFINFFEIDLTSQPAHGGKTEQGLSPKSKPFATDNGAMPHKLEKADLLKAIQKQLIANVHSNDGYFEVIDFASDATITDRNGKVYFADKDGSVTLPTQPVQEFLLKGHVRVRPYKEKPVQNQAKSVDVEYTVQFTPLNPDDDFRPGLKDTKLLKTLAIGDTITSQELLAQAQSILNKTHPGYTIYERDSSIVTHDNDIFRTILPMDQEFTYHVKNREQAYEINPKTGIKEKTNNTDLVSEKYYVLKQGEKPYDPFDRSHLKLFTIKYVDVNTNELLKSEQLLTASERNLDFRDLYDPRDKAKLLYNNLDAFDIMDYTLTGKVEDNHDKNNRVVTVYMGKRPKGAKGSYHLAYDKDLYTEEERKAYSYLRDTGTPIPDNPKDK

[21] = C. albicans growth with fluconazole, confirmation, fluorescence, retest (AID 2467); type: functional, cell-based
[22] = system: Streptococcus; assay: Group A Streptococcus viability loss, dose response, counter-screen for streptokinase expression inhibitor project, luminescence, BacTiterGlo (AID 1915); type: functional, organism-based;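 also: potency for reduction of bacterial viability or growth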

Chain of Induced myeloid leukemia cell differentiation protein Mcl-1 (Q07820 whole entry): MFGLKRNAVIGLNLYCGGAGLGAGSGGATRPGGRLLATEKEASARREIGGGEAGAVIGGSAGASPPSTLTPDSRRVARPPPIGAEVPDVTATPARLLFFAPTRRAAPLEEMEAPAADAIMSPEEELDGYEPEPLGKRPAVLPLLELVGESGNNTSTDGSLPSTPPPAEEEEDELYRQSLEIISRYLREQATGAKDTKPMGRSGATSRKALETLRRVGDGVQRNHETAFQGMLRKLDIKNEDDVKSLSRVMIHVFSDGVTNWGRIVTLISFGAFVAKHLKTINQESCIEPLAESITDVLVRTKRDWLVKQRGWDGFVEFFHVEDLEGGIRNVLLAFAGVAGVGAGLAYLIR
Chain of Cytochrome P450 2C9 (P11712 whole entry, the tested form may be a part): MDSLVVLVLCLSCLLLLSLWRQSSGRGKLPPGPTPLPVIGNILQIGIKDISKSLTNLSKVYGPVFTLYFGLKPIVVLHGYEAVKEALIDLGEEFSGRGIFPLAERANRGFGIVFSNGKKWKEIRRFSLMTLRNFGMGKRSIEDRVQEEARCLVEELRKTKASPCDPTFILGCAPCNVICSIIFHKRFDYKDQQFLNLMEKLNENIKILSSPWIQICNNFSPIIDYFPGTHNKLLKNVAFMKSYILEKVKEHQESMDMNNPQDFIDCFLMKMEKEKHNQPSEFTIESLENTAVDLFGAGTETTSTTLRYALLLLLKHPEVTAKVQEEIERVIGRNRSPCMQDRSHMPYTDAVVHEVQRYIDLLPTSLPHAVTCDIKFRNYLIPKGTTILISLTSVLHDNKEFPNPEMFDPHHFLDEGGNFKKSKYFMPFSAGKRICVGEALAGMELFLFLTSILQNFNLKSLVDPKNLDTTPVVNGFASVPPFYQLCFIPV
Chain of Fatty acid synthase (P49327 whole entry, the tested form may be a part): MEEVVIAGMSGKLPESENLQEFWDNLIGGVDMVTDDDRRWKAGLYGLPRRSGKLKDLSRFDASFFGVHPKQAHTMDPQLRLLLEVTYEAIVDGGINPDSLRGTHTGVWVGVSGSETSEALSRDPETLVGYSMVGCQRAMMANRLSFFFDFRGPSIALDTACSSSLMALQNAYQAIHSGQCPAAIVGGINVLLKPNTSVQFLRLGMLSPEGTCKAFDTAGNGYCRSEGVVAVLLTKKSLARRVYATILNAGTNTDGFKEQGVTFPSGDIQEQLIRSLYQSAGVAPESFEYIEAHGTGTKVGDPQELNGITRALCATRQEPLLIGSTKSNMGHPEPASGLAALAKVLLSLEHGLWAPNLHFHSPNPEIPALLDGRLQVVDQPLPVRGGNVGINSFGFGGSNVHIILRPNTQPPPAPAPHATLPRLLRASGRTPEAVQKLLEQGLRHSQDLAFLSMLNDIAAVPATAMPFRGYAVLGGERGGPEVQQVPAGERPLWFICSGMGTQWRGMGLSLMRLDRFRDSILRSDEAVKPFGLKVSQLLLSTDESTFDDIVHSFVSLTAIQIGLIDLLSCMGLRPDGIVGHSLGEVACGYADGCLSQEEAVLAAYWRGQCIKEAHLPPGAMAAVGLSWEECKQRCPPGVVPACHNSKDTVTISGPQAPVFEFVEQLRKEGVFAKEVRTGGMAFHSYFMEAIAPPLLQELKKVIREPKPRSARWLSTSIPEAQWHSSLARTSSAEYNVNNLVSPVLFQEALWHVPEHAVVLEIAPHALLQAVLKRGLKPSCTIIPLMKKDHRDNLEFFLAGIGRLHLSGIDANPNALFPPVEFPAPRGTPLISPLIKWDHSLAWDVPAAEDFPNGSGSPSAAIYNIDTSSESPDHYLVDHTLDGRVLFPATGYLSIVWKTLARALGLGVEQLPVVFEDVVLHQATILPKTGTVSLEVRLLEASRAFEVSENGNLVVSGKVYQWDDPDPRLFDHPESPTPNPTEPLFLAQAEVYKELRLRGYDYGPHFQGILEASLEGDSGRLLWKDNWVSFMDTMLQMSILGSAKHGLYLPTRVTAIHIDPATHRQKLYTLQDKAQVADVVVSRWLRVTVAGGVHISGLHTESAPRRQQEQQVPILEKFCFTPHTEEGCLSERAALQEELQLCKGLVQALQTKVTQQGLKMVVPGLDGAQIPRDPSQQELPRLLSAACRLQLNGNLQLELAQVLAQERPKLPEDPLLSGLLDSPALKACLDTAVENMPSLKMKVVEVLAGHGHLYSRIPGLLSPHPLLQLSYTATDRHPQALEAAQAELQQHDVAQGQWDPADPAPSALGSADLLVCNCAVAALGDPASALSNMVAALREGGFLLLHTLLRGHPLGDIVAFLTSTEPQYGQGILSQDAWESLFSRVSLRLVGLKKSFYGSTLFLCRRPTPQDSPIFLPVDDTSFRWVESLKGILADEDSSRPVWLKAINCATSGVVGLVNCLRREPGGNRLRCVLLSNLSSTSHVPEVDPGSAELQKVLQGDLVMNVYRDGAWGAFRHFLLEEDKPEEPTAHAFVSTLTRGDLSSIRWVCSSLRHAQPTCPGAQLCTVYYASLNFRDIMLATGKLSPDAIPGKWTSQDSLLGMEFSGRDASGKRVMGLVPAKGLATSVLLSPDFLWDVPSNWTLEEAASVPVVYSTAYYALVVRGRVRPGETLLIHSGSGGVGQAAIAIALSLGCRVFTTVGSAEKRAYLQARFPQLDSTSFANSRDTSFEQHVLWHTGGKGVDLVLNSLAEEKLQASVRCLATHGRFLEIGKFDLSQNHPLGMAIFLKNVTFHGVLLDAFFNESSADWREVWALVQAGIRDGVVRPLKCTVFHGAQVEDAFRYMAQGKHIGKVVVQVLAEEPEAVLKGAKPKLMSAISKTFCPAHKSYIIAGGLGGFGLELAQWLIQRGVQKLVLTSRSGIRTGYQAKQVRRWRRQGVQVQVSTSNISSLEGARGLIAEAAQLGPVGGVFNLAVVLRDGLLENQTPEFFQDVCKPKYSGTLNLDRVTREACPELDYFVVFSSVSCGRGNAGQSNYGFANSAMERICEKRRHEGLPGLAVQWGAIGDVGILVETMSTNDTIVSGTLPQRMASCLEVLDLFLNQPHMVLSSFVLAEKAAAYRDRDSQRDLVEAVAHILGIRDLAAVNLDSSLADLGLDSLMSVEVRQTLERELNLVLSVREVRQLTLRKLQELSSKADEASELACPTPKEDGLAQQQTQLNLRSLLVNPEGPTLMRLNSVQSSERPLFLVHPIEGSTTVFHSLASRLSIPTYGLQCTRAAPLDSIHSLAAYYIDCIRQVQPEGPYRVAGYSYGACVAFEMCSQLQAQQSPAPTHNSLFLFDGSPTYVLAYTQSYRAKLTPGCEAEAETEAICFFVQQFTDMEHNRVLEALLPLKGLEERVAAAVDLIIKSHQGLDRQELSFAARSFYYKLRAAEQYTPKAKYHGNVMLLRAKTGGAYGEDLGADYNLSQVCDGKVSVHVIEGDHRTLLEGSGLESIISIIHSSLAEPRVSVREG
Chain of FAD-linked sulfhydryl oxidase ALR (P55789 whole entry): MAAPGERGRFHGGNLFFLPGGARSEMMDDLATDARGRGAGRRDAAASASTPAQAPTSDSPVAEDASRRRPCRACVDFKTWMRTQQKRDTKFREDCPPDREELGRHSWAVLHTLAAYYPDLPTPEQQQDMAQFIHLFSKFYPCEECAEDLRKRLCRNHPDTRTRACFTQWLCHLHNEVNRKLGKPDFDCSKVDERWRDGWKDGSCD
Chain of Cytochrome P450 3A4 (P08684 whole entry): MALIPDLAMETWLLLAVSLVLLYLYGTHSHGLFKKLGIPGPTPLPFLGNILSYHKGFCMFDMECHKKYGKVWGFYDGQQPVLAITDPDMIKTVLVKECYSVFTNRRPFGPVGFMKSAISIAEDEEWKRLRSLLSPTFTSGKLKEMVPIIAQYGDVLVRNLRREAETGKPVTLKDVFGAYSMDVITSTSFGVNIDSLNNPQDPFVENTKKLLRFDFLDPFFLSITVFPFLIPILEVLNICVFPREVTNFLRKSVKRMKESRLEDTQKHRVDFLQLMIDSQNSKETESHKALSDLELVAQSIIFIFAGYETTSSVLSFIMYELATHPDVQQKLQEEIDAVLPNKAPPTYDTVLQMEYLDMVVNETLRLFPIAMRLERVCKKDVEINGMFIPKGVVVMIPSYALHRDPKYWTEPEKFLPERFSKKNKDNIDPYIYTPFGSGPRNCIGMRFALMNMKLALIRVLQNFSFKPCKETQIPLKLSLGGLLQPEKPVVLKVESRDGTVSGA

SMILES: CSc1ccccc1OCc1cc(C(=O)N2CCN(C)C(c3ccccc3)C2)no1 (centres undefined)
- AC50 [1]: 1.64 µM (active)

SMILES: Cc1ccc(S(=O)(=O)N(C)C[C@@H]2Oc3ccc(NC(=O)C4CCCCC4)cc3CC(=O)N([C@H](C)CO)C[C@@H]2C)cc1
- AC50 [2]: < 0.26 µM (active)
- AC50 [3]: 0.574 µM (active)
- AC50 [4]: 2.14 µM (active)

SMILES: Cc1noc(C)c1S(=O)(=O)Nc1ccc2c(c1)C(=O)N([C@H](C)CO)C[C@H](C)[C@@H](CN(C)Cc1ccc(C(=O)Nc3ccccc3N)cc1)OCCCC[C@@H](C)O2
- AC50 [5]: 2.18 µM (active)

SMILES: O=S(=O)(NC1CC2CCC1C2)c1ccc(Br)cc1 (centres undefined)
- AC50 [1]: 1.6 µM (active)

SMILES: O=C1CC(=O)c2c1cccc2[N+](=O)[O-]
- IC50 [6]: 3.52 µM (active)

SMILES: O=C(NCc1cccs1)c1csc([C@@H]2O[C@H](CO)[C@H](O)[C@H](O)[C@H]2O)n1
- IC50 [7]: > 100 µM (inactive)

SMILES: CC(C)C#Cc1ccc([C@@H]2[C@@H](CO)N3C(=O)CN(C(=O)C4CCCCC4)C[C@@H]23)cc1
- AC50 [8]: 7.36 µM (active)

SMILES: COc1ccc(N2C(=O)CSC2c2ccncc2)cc1 (centres undefined)
- EC50 [9]: > 260 µM (inactive)
- AC50 [10]: 0.124 µM (active)

SMILES: C[C@@H]1CN([C@@H](C)CO)C(=O)Cc2cc(NC(=O)Nc3ccc(C(F)(F)F)cc3)ccc2O[C@@H]1CN(C)Cc1ccncc1
- AC50 [5]: 3.57 µM (active)

SMILES: CCCCCn1c(N)c(C(=O)NCCN2CCOCC2)c2nc3ccccc3nc21
- IC50 [7]: > 100 µM (inactive)

SMILES: CCS(=O)(=O)N1CCC2(CC1)CN(Cc1ccc3c(c1)OCO3)[C@@H](CO)c1[nH]c3cc(OC)ccc3c12
- AC50 [8]: 8.27 µM (active)

SMILES: C[C@H]1CN([C@@H](C)CO)C(=O)Cc2cc(NC(=O)Cc3cn(C)c4ccccc34)ccc2O[C@H]1CN(C)Cc1ccc(C(=O)Nc2ccccc2N)cc1
- AC50 [5]: 2 µM (active)

SMILES: CCn1c2ccccc2c2cc(NC(=O)CSc3nnc(-c4ccc(OC)c(OC)c4)n3N)ccc21
- CC50 [11]: > 50 µM (active)
- IC50 [7]: > 100 µM (inactive)
- AC50 [12]: 22.4 µM (inconclusive)

SMILES: O=C(Nc1nc(-c2ccc(S(=O)(=O)N3CCCC3)cc2)cs1)c1ccco1
- IC50 [13]: 4.05 µM (active)

SMILES: COc1ccc(S(=O)(=O)Nc2ccc3c(c2)CC(=O)N([C@@H](C)CO)C[C@@H](C)[C@@H](CN(C)Cc2ccc(Cl)c(Cl)c2)O3)cc1
- AC50 [5]: 4.36 µM (active)

SMILES: O=C(Nc1ccc(N2CCOCC2)cc1)Nc1ccc(Cl)c(Cl)c1
- IC50 [6]: 19.5 µM (not active)

SMILES: O=C(NCCCCc1ccccc1)C1CC(c2ccccc2[N+](=O)[O-])=NO1 (centres undefined)
- IC50 [6]: 7.55 µM (not active)
- AC50 [14]: 14.1 µM (inconclusive)
- AC50 [12]: 31.6 µM (inconclusive)

SMILES: CC(=O)NC(Cc1ccc(F)cc1)C(=O)N1CCN(C(=O)NCc2ccccc2)CC1 (centres undefined)
- IC50 [7]: > 100 µM (inactive)

SMILES: Cn1c(=O)c(C(=O)COC(=O)c2cc(-c3ccco3)nc3ccccc23)c(N)n(Cc2ccccc2)c1=O
- IC50 [6]: 2.02 µM (active)

SMILES: c1ccc(OCc2nc3ccccc3s2)cc1 [2-(PHENOXYMETHYL)BENZOTHIAZOLE]
- IC50 [7]: 29.5 µM (active)

SMILES: C[C@H]1CN([C@@H](C)CO)C(=O)Cc2cc(NC(=O)Nc3cccc4ccccc34)ccc2O[C@@H]1CN(C)Cc1ccc2c(c1)OCO2
- AC50 [5]: 5.35 µM (active)

SMILES: CC(C)NC(=O)Nc1cccc2c1O[C@H](CN(C)CC1CCCCC1)[C@@H](C)CN([C@H](C)CO)C2=O
- AC50 [5]: 8.41 µM (active)

SMILES: Cc1ccc(S(=O)(=O)N(C)C[C@H]2Oc3c(NC(=O)Nc4ccc(C(F)(F)F)cc4)cccc3C(=O)N([C@@H](C)CO)C[C@H]2C)cc1
- AC50 [5]: 1.55 µM (active)

SMILES: Cc1occc1-c1nnc(-c2cc([N+](=O)[O-])cc([N+](=O)[O-])c2)o1
- EC50 [15]: 0.277 µM (active)
- EC50 [16]: > 60 µM (not active)
- IC50 [17]: 1.37 µM (active)
- AC50 [1]: 2.74 µM (active)

SMILES: C[C@H]1CN([C@@H](C)CO)C(=O)c2c(c3ccccc3n2C)-c2ccccc2CO[C@H]1CN(C)C(=O)C1CC1
- AC50 [2]: 0.362 µM (active)
- AC50 [3]: 0.462 µM (active)
- AC50 [4]: 1.18 µM (active)

SMILES: CC1Oc2cc3oc4c(O)c(O)ccc4c(=O)c3c(O)c2C1(C)C (centres undefined) [TOXYLOXANTHONE C]
- EC50 [18]: > 150 µM (inactive)
- EC50 [19]: 5.91 µM (active)
- EC50 [20]: > 150 µM (not active)
- EC50 [21]: > 38 µM (not active)
- EC50 [22]: 8.07 µM (active)
- AC50 [1]: 38 µM (active)

SMILES: c1ccc(-c2cc3c(N4CCOCC4)ncnc3s2)cc1
- IC50 [7]: > 100 µM (inactive)

SMILES: O=C1OC(c2ccccc2)(c2ccc3cc(O)ccc3c2)c2ccccc21 (centres undefined)
- AC50 [1]: 8.23 µM (active)

SMILES: CSC1=N/C(=C\c2ccccc2F)C(=O)S1
- IC50 [6]: 24.7 µM (not active)

SMILES: COc1ccccc1CNC(=O)C[C@H]1C[C@@H]2c3cc(NC(=O)Nc4ccc(C(F)(F)F)cc4)ccc3O[C@@H]2[C@H](CO)O1
- AC50 [8]: 6.78 µM (active)

SMILES: C[C@@H]1CCCCO[C@H](CN(C)C(=O)Nc2ccc(C(F)(F)F)cc2)[C@@H](C)CN([C@H](C)CO)C(=O)c2cc(NC(=O)Nc3ccc4c(c3)OCO4)ccc2O1
- AC50 [5]: 1.68 µM (active)

SMILES: O=C(/C=C/c1ccc(Cl)cc1Cl)Nc1ccc(CN2CCOCC2)cc1
- IC50 [7]: 27 µM (active)

SMILES: O=C(Nc1ccc(Cl)cc1Cl)C1=Cc2ccccc2OC1
- IC50 [7]: > 100 µM (inactive)

SMILES: C[C@@H]1CN([C@H](C)CO)C(=O)c2cccc(NC(=O)NC3CCCCC3)c2O[C@@H]1CN(C)Cc1ccc(C(=O)Nc2ccccc2N)cc1
- AC50 [5]: 3.74 µM (active)

SMILES: C/C(CC(=O)Nc1cc(C)ccn1)=N\NC(=O)c1cccc(C)c1O
- EC50 [18]: > 160 µM (inactive)
- EC50 [21]: > 38 µM (not active)
- AC50 [1]: 49.5 µM (active)
